Assay results taken from US4505924A, “Pharmaceutical preparation for the topical treatment of acne” (Richardson-Vicks Ltd., priority 1982, dated 1985).
Like-named read-outs stand apart in the source and are kept apart here.

Key:
[1] = tested on: lipase; assay: Direct inhibition of P. acnes lipase activity; assay type: biochemical, Propionibacterium acnes
Procedure: (§1) Imazalil and Hexamidine have been studied for anti-enzymic properties against the production and activity of the exoenzymes of Propionibacterium acnes.
There was a 29% reduction of lipase activity in the presence of 10 μg/ml Imazalil and a 68% reduction with 100 μg/ml Imazalil.
(i) A leval of 1 μg/ml Hexamidine reduced lipase activity by 33%.
(i) 100 μg/ml Imazalil and 1 ug/ml Hexamidine reduced lipase activity by 55%.

[2] = tested on: P. acnes; assay: Zone diffusion test using 1% artificial sebum in agar (resistance to inactivation by sebum); assay type: cell-based; details: for zone of inhibition at 10 µg/disc / zone of inhibition at 100 µg/disc: Cutibacterium acnes; for zone of inhibition at 10 µg/disc: 10 μg; for zone of inhibition at 100 µg/disc: 100 μg
[3] = tested on: P. acnes; assay: Zone diffusion test; assay type: cell-based
Procedure: (§2) A zone diffusion test was carried out on the three emulsions. The results were as follows:
(§3) The ranking order for activity against P. acnes was the same as the GMS emulsions.

[4] = tested on: S. epidermidis; assay: Zone diffusion test; assay type: cell-based
Procedure: as §2, §3

[5] = Zone diffusion test for synergistic activity; assay type: cell-based; details: single substance; for zone of inhibition at 10 µg/disc: 10 μg; for zone of inhibition at 100 µg/disc: 100 μg
Procedure: Imazalil and Hexamidine were tested for synergistic activity using a zone diffusion test.

[6] = tested on: Pi. ovale; assay: Zone diffusion test; assay type: cell-based; details: Pityrosporum ovale, read-out: Zone of Imhibition, Pi. ovale
[7] = tested on: acid phosphatase; assay: Acid phosphatase production by P. acnes in continuous culture (chemostat); assay type: cell-based, Propionibacterium acnes; details: growth in the presence of 10 μg/ml Imazalil
Excerpt: (§4) The enzymes are believed to play a role in the pathogenesis of acne. Imazalil is a direct lipase inhibitor and also reduces the production of hyaluronidase and acid phosphatase. Hexamidine likewise reduces the lipase activity.
as §1
(§5) (ii) Imazalil reduced the output of hyaluronidase and acid phosphatase by P.acnes.
(§6) Levels of hyaluronidase fell by 50% after growth in the presence of 10 μg/ml Imazalil.
(§7) (ii) Production of lipase, hyaluronidase and acid phosphatase was markedly affected by a mixture of 10 μg/ml Imazalil and 1 μg/ml Hexamidine. […] Hyaluronidase output was reduced by 50%. Acid phosphatase output was reduced by 80%.

[8] = tested on: hyaluronidase; assay: Hyaluronidase production by P. acnes in continuous culture (chemostat); assay type: cell-based, Propionibacterium acnes; details: growth in the presence of 10 μg/ml Imazalil
Excerpt: as §4, §1, §5, §6, §7

[9] = 1% artificial sebum in agar, read-out: Zone of Inhibition, Sebum
[10] = control agar, read-out: Zone of Inhibition, Control

N=C(N)c1ccc(OCCCCCCOc2ccc(C(=N)N)cc2)cc1 [Hexamidine, 4,4-(hexamethylene (dihydroxy)-dibenzamidine-di-β-hydroxy ethanesulfonate]
reduction of lipase activity ([1]; 1 μg/ml Hexamidine): 33% | inhibitive effect of lipids (sebum) on activity ([2]; 1% artificial sebum in agar): totally resistant | zone of inhibition at 10 µg/disc [2, 9]: 11 mm | zone of inhibition at 10 µg/disc [2, 10]: 9 mm | zone of inhibition at 100 µg/disc [2, 9]: 33 mm | zone of inhibition at 100 µg/disc [2, 10]: 31.5 mm | Zone of Imhibition, P. acnes ([3]; 20 μg): 22.5 mm | zone of inhibition at 20 µg/disc ([3]; Cutibacterium acnes, 20 μg, read-out: Zone of Imhibition, P. acnes): 17 mm | Zone of Imhibition, S. epidermidis ([4]; 20 μg): 13 mm | zone of inhibition at 20 µg/disc ([4]; Staphylococcus epidermidis, 20 μg, read-out: Zone of Imhibition, S. epidermidis): 10 mm | zone of inhibition at 1 µg/disc ([5]; 1 μg): 3 mm | zone of inhibition at 10 µg/disc [5]: 10 mm | zone of inhibition at 100 µg/disc [5]: 29.5 mm

C=CCOC(Cn1ccnc1)c1ccc(Cl)cc1Cl (stereo not drawn) [Imazalil, 1-[2-(2,4-dichlorophenyl)-2-(2-propenyloxy)ethyl]-1H-imidazole]
reduction of lipase activity ([1]; 10 μg/ml Imazalil): 29% | reduction of lipase activity ([1]; 100 μg/ml Imazalil): 68% | zone of inhibition at 10 µg/disc ([6]; 10 μg): 11 mm | zone of inhibition at 80 µg/disc ([6]; 80 μg): 28 mm | Production of acid phosphatase [7]: totally inhibited | inhibitive effect of lipids (sebum) on activity ([2]; 1% artificial sebum in agar): partially inhibited | zone of inhibition at 10 µg/disc [2, 9]: 0 mm | zone of inhibition at 10 µg/disc [2, 10]: 0 mm | zone of inhibition at 100 µg/disc [2, 9]: 1.5 mm | zone of inhibition at 100 µg/disc [2, 10]: 5 mm | fall of hyaluronidase levels [8]: 50% | zone of inhibition at 10 µg/disc ([3]; Cutibacterium acnes, 10 μg, read-out: Zone of Imhibition, P. acnes): 3 mm | zone of inhibition at 80 µg/disc ([3]; Cutibacterium acnes, 80 μg, read-out: Zone of Imhibition, P. acnes): 22 mm | zone of inhibition at 10 µg/disc ([4]; Staphylococcus epidermidis, 10 μg, read-out: Zone of Imhibition, S. epidermidis): 3 mm | zone of inhibition at 80 µg/disc ([4]; Staphylococcus epidermidis, 80 μg, read-out: Zone of Imhibition, S. epidermidis): 7.5 mm | zone of inhibition at 10 µg/disc [5]: 0 mm | zone of inhibition at 100 µg/disc [5]: 5.5 mm
